According to patent publication US9771369B2, “Compounds and methods for kinase modulation, and indications therefor” (Plexxikon Inc., priority 2014, dated 2017):

biological target: c-Kit kinase (Homo sapiens (Human), UniProt P10721); assay: c-Kit biochemical assay (AlphaScreen kinase activity)
How it was run: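 IC50 values come from 8-point, 1:3 compound titrations measuring inhibition of peptide phosphorylation by c-Kit (commercial or His-tagged E. coli-expressed) over 1 h at room temperature, read by AlphaScreen PY30/streptavidin beads. Low-ATP version: 10 μM ATP, 100 nM biotin-(E4Y)3; high-ATP version: 100 μM ATP, 30 nM biotin-(E4Y)10.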

c-Kit kinase, sequence (P10721 26-976): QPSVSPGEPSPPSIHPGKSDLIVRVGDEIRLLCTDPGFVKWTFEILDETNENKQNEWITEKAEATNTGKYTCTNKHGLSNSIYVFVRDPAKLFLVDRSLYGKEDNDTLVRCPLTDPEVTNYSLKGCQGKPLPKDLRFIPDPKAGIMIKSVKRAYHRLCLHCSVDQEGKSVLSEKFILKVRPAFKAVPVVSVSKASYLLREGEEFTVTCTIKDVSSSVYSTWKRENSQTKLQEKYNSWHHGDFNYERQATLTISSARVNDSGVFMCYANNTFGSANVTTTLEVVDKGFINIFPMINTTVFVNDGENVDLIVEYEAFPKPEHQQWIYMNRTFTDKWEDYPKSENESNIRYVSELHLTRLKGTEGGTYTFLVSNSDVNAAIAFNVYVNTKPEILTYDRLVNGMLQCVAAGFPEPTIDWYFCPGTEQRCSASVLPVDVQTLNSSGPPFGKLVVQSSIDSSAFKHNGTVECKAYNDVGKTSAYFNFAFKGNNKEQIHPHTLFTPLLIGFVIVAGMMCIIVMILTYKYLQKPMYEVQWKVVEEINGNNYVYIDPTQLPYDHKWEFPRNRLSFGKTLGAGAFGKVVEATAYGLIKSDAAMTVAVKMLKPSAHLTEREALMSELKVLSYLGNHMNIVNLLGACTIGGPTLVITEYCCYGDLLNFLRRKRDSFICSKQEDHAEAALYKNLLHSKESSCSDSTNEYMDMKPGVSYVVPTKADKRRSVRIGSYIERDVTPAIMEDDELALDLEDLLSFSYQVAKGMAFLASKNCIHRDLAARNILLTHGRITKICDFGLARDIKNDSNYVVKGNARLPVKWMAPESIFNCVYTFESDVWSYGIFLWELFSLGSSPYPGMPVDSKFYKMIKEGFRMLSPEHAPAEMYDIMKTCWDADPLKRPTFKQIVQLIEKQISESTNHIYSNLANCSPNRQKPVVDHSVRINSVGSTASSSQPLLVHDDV

Q: How did the IC50 turn out when `COc1cc(-c2cc3c(N4CCC(c5nc(C)c(-c6cccc(OC(F)(F)F)c6)[nH]5)CC4)ncnc3[nH]2)ccn1` [P-3014, 6-(2-methoxy-4-pyridyl)-4-[4-[4-methyl-5-[3-(trifluoromethoxy)phenyl]-1H-imidazol-2-yl]-1-piperidyl]-7H-pyrrolo[2,3-d]pyrimidine] was run?
A: 1 to 10 µM

Q: For `COc1ccc(-c2[nH]c(C3CCN(c4ncnc5[nH]c(-c6ccc(C#N)cc6)cc45)CC3)nc2C)cc1` [P-3015, 4-[4-[4-[5-(4-methoxyphenyl)-4-methyl-1H-imidazol-2-yl]-1-piperidyl]-7H-pyrrolo[2,3-d]pyrimidin-6-yl]benzonitrile], which IC50 is on record?
A: 0.0001 to 1 µM

Q: `Cc1nc(C2CCN(c3ncnc4[nH]c(-c5ccc(C#N)cc5)cc34)CC2)[nH]c1-c1cccc(F)c1` [P-3016, 4-[4-[4-[5-(3-fluorophenyl)-4-methyl-1H-imidazol-2-yl]-1-piperidyl]-7H-pyrrolo[2,3-d]pyrimidin-6-yl]benzonitrile] was tested. Which IC50 did it give?
A: 1 to 10 µM

Q: For `COc1ccc(-c2[nH]c(C3CCN(c4ncnc5[nH]c(-c6ccnc(OC)c6)cc45)CC3)nc2C)cc1` [P-3017, 4-[4-[5-(4-methoxyphenyl)-4-methyl-1H-imidazol-2-yl]-1-piperidyl]-6-(2-methoxy-4-pyridyl)-7H-pyrrolo[2,3-d]pyrimidine], which IC50 is on record?
A: 0.0001 to 1 µM

Q: How did the IC50 turn out when `COc1ccc(-c2[nH]c(C3CCN(c4ncnc5[nH]c(-c6ccc(C#N)cc6)cc45)CC3)nc2C)cc1F` [P-3018, 4-[4-[4-[5-(3-fluoro-4-methoxy-phenyl)-4-methyl-1H-imidazol-2-yl]-1-piperidyl]-7H-pyrrolo[2,3-d]pyrimidin-6-yl]benzonitrile] was run?
A: 1 to 10 µM

Q: For `CCOc1ccc(-c2[nH]c(C3(C)CCN(c4ncnc5[nH]c(-c6ccc(OC)nc6)cc45)CC3)nc2C)cc1` [P-3171, 4-[4-[5-(4-ethoxyphenyl)-4-methyl-1H-imidazol-2-yl]-4-methyl-1-piperidyl]-6-(6-methoxy-3-pyridyl)-7H-pyrrolo[2,3-d]pyrimidine], which IC50 is on record?
A: 0.0001 to 1 µM

Q: How did the IC50 turn out when `COc1ccc(-c2[nH]c(C3(C)CCN(c4ncnc5[nH]c(-c6ccc(C#N)cc6)cc45)CC3)nc2C)cn1` [P-3172, 4-[4-[4-[5-(6-methoxy-3-pyridyl)-4-methyl-1H-imidazol-2-yl]-4-methyl-1-piperidyl]-7H-pyrrolo[2,3-d]pyrimidin-6-yl]benzonitrile] was run?
A: 0.0001 to 1 µM

Q: For `COc1ncc(-c2[nH]c(C3CCN(c4ncnc5[nH]c(-c6ccc(C#N)cc6)cc45)CC3)nc2C)cc1F` [P-3173, 4-[4-[4-[5-(5-fluoro-6-methoxy-3-pyridyl)-4-methyl-1H-imidazol-2-yl]-1-piperidyl]-7H-pyrrolo[2,3-d]pyrimidin-6-yl]benzonitrile], which IC50 is on record?
A: 0.0001 to 1 µM

Q: How did the IC50 turn out when `Cc1nc(C2(C)CCN(c3ncnc4[nH]c(-c5cnn(C(F)F)c5)cc34)CC2)[nH]c1-c1ccc(Cl)cc1` [P-3175, 4-[4-[5-(4-chlorophenyl)-4-methyl-1H-imidazol-2-yl]-4-methyl-1-piperidyl]-6-[1-(difluoromethyl)pyrazol-4-yl]-7H-pyrrolo[2,3-d]pyrimidine] was run?
A: 0.0001 to 1 µM

Q: Which IC50 does the source give for `COc1ccc(-c2cc3c(N4CCC(C)(c5nc(C)c(-c6ccc(Cl)cc6)[nH]5)CC4)ncnc3[nH]2)cn1` [P-3176, 4-[4-[5-(4-chlorophenyl)-4-methyl-1H-imidazol-2-yl]-4-methyl-1-piperidyl]-6-(6-methoxy-3-pyridyl)-7H-pyrrolo[2,3-d]pyrimidine] here?
A: 0.0001 to 1 µM

Q: For `Cc1nc(C2(C)CCN(c3ncnc4[nH]c(-c5ccc(C#N)cc5)cc34)CC2)[nH]c1-c1ccc(C(F)(F)F)cc1` [P-3177, 4-[4-[4-methyl-4-[4-methyl-5-[4-(trifluoromethyl)phenyl]-1H-imidazol-2-yl]-1-piperidyl]-7H-pyrrolo[2,3-d]pyrimidin-6-yl]benzonitrile], which IC50 is on record?
A: 0.0001 to 1 µM

Q: With `COc1ccc(-c2cc3c(N4CCC(C)(c5nc(C)c(-c6ccc(C(F)(F)F)cc6)[nH]5)CC4)ncnc3[nH]2)cn1` [P-3178, 6-(6-methoxy-3-pyridyl)-4-[4-methyl-4-[4-methyl-5-[4-(trifluoromethyl)phenyl]-1H-imidazol-2-yl]-1-piperidyl]-7H-pyrrolo[2,3-d]pyrimidine] as the compound, how does the IC50 read?
A: 0.0001 to 1 µM

Q: `Cc1nc(C2(C)CCN(c3ncnc4[nH]c(-c5cnn(C(F)F)c5)cc34)CC2)[nH]c1-c1ccc(C(F)(F)F)cc1` [P-3179, 6-[1-(difluoromethyl)pyrazol-4-yl]-4-[4-methyl-4-[4-methyl-5-[4-(trifluoromethyl)phenyl]-1H-imidazol-2-yl]-1-piperidyl]-7H-pyrrolo[2,3-d]pyrimidine] was tested. Which IC50 did it give?
A: 0.0001 to 1 µM

Q: For `Cc1nc(C2(C)CCN(c3ncnc4[nH]c(-c5ccc(C#N)cc5)cc34)CC2)[nH]c1-c1ccc(Cl)cc1` [P-3180, 4-[4-[4-[5-(4-chlorophenyl)-4-methyl-1H-imidazol-2-yl]-4-methyl-1-piperidyl]-7H-pyrrolo[2,3-d]pyrimidin-6-yl]benzonitrile], which IC50 is on record?
A: 0.0001 to 1 µM

Q: For `COc1ncc(-c2[nH]c(C3(C)CCN(c4ncnc5[nH]c(-c6ccc(C#N)cc6)cc45)CC3)nc2C)cc1F` [P-3181, 4-[4-[4-[5-(5-fluoro-6-methoxy-3-pyridyl)-4-methyl-1H-imidazol-2-yl]-4-methyl-1-piperidyl]-7H-pyrrolo[2,3-d]pyrimidin-6-yl]benzonitrile], which IC50 is on record?
A: 0.0001 to 1 µM

Q: For `COc1ccc(-c2[nH]c(C3(C)CCN(c4ncnc5[nH]c(-c6cnn(C(F)F)c6)cc45)CC3)nc2C)cn1` [P-3182, 6-[1-(difluoromethyl)pyrazol-4-yl]-4-[4-[5-(6-methoxy-3-pyridyl)-4-methyl-1H-imidazol-2-yl]-4-methyl-1-piperidyl]-7H-pyrrolo[2,3-d]pyrimidine], which IC50 is on record?
A: 0.0001 to 1 µM

Q: With `COc1ccc(-c2[nH]c(C3(C)CCN(c4ncnc5[nH]c(C)cc45)CC3)nc2C)cc1F` [P-3183, 4-[4-[5-(3-fluoro-4-methoxy-phenyl)-4-methyl-1H-imidazol-2-yl]-4-methyl-1-piperidyl]-6-methyl-7H-pyrrolo[2,3-d]pyrimidine] as the compound, how does the IC50 read?
A: 0.0001 to 1 µM

Q: `Cc1cc2c(N3CCC(C)(c4nc(C)c(-c5ccc(C(F)F)cc5)[nH]4)CC3)ncnc2[nH]1` [P-3184, 4-[4-[5-[4-(difluoromethyl)phenyl]-4-methyl-1H-imidazol-2-yl]-4-methyl-1-piperidyl]-6-methyl-7H-pyrrolo[2,3-d]pyrimidine] was tested. Which IC50 did it give?
A: 0.0001 to 1 µM

Q: With `COc1ncc(-c2nc(C3(C)CCN(c4ncnc5[nH]c(C)cc45)CC3)[nH]c2C)cc1F` [P-3185, 4-[4-[4-(5-fluoro-6-methoxy-3-pyridyl)-5-methyl-1H-imidazol-2-yl]-4-methyl-1-piperidyl]-6-methyl-7H-pyrrolo[2,3-d]pyrimidine] as the compound, how does the IC50 read?
A: 1 to 10 µM

Q: How did the IC50 turn out when `COc1ccc(-c2nc(C3(C)CCN(c4ncnc5[nH]c(C)cc45)CC3)[nH]c2C)cn1` [P-3186, 4-[4-[4-(6-methoxy-3-pyridyl)-5-methyl-1H-imidazol-2-yl]-4-methyl-1-piperidyl]-6-methyl-7H-pyrrolo[2,3-d]pyrimidine] was run?
A: 1 to 10 µM

Q: How did the IC50 turn out when `COc1ccc(-c2[nH]c(C3(C)CCN(c4ncnc5[nH]c(-c6cnn(C(F)F)c6)cc45)CC3)nc2C)cc1F` [P-3187, 6-[1-(difluoromethyl)pyrazol-4-yl]-4-[4-[5-(3-fluoro-4-methoxy-phenyl)-4-methyl-1H-imidazol-2-yl]-4-methyl-1-piperidyl]-7H-pyrrolo[2,3-d]pyrimidine] was run?
A: 0.0001 to 1 µM

Q: How did the IC50 turn out when `COc1ccc(-c2cc3c(N4CCC(C)(c5nc(C)c(-c6ccc(OC)c(F)c6)[nH]5)CC4)ncnc3[nH]2)cn1` [P-3188, 4-[4-[5-(3-fluoro-4-methoxy-phenyl)-4-methyl-1H-imidazol-2-yl]-4-methyl-1-piperidyl]-6-(6-methoxy-3-pyridyl)-7H-pyrrolo[2,3-d]pyrimidine] was run?
A: 0.0001 to 1 µM

Q: `Cc1nc(C2(C)CCN(c3ncnc4[nH]c(-c5cnn(C(F)F)c5)cc34)CC2)[nH]c1-c1ccc(C(F)F)cc1` [P-3189, 4-[4-[5-[4-(difluoromethyl)phenyl]-4-methyl-1H-imidazol-2-yl]-4-methyl-1-piperidyl]-6-[1-(difluoromethyl)pyrazol-4-yl]-7H-pyrrolo[2,3-d]pyrimidine] was tested. Which IC50 did it give?
A: 0.0001 to 1 µM

Q: With `COc1ccc(-c2cc3c(N4CCC(C)(c5nc(C)c(-c6ccc(C(F)F)cc6)[nH]5)CC4)ncnc3[nH]2)cn1` [P-3190, 4-[4-[5-[4-(difluoromethyl)phenyl]-4-methyl-1H-imidazol-2-yl]-4-methyl-1-piperidyl]-6-(6-methoxy-3-pyridyl)-7H-pyrrolo[2,3-d]pyrimidine] as the compound, how does the IC50 read?
A: 0.0001 to 1 µM

Q: Which IC50 does the source give for `Cc1cc2c(N3CCC(C)(c4nc(C)c(-c5cccc(OC(F)F)c5)[nH]4)CC3)ncnc2[nH]1` [P-3191, 4-[4-[5-[3-(difluoromethoxy)phenyl]-4-methyl-1H-imidazol-2-yl]-4-methyl-1-piperidyl]-6-methyl-7H-pyrrolo[2,3-d]pyrimidine] here?
A: 1 to 10 µM

Q: `Cc1nc(C2(C)CCN(c3ncnc4[nH]c(-c5cnn(C(F)F)c5)cc34)CC2)[nH]c1-c1cccc(OC(F)F)c1` [P-3192, 4-[4-[5-[3-(difluoromethoxy)phenyl]-4-methyl-1H-imidazol-2-yl]-4-methyl-1-piperidyl]-6-[1-(difluoromethyl)pyrazol-4-yl]-7H-pyrrolo[2,3-d]pyrimidine] was tested. Which IC50 did it give?
A: 0.0001 to 1 µM

Q: How did the IC50 turn out when `COc1ccc(-c2cc3c(N4CCC(C)(c5nc(C)c(-c6cccc(OC(F)F)c6)[nH]5)CC4)ncnc3[nH]2)cn1` [P-3193, 4-[4-[5-[3-(difluoromethoxy)phenyl]-4-methyl-1H-imidazol-2-yl]-4-methyl-1-piperidyl]-6-(6-methoxy-3-pyridyl)-7H-pyrrolo[2,3-d]pyrimidine] was run?
A: 0.0001 to 1 µM

Q: For `Cc1nc(C2(C)CCN(c3ncnc4[nH]c(-c5ccc(C#N)cc5)cc34)CC2)[nH]c1-c1cccc(OC(F)F)c1` [P-3194, 4-[4-[4-[5-[3-(difluoromethoxy)phenyl]-4-methyl-1H-imidazol-2-yl]-4-methyl-1-piperidyl]-7H-pyrrolo[2,3-d]pyrimidin-6-yl]benzonitrile], which IC50 is on record?
A: 1 to 10 µM

Q: `Cc1nc(C2(C)CCN(c3ncnc4[nH]c(-c5ccc(C#N)cc5)cc34)CC2)[nH]c1-c1ccc(OC(F)F)cc1` [P-3195, 4-[4-[4-[5-[4-(difluoromethoxy)phenyl]-4-methyl-1H-imidazol-2-yl]-4-methyl-1-piperidyl]-7H-pyrrolo[2,3-d]pyrimidin-6-yl]benzonitrile] was tested. Which IC50 did it give?
A: 0.0001 to 1 µM
